The results in this text go back to paper PMC3265452 (PLoS Neglected Tropical Diseases, 2012).

By inhibition is commonly meant how much of the control response was suppressed.

Counter-ions that a name gives are not always drawn.

The first experiment deals with AaDOP2 (Aedes aegypti, UniProt H6D5H2). Nature of the experiment: AaDOP2 antagonist screen of the LOPAC1280 library (HEK-CRELuc-Aadop2 cells, luminescence).
Chain of AaDOP2 (H6D5H2 1-476): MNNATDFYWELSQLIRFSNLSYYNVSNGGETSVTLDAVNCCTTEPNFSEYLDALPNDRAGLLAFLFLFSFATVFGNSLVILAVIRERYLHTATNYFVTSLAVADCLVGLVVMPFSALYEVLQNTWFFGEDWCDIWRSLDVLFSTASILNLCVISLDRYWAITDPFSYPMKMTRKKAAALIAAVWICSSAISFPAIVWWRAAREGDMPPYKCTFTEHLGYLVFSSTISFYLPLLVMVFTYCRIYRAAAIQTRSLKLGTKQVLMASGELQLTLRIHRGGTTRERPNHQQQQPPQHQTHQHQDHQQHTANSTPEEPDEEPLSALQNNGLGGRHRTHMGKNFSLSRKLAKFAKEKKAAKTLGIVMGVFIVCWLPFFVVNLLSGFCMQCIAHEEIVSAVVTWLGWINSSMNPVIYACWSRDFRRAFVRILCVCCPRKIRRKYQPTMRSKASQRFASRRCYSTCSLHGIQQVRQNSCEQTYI
Conditions: not given
The class given is cell-based.
Regarding `CC[C@@H]1C(=O)OC[C@@H]1Cc1cncn1C` [Compound 960, Pilocarpine nitrate], the “Compound effect (percent receptor signaling in presence of test compound, relative lux units relative to the SCH23390 control)” value amounted to 96.

`CN(C)CCCN1c2ccccc2Sc2ccccc21` [Compound 961, Promazine hydrochloride]: the “Compound effect (percent receptor signaling in presence of test compound, relative lux units relative to the SCH23390 control)” value is listed as 12.

With `NNCCc1ccccc1` [Compound 962, Phenelzine sulfate], the “Compound effect (percent receptor signaling in presence of test compound, relative lux units relative to the SCH23390 control)” value amounted to 93.

For `CN(C)CCC(c1ccccc1)c1ccccn1` (centres unmarked) [Compound 963, Pheniramine maleate], the “Compound effect (percent receptor signaling in presence of test compound, relative lux units relative to the SCH23390 control)” value is 91.

As to `O=C(O)CP(=O)(O)O` [Compound 964, Phosphonoacetic acid], the “Compound effect (percent receptor signaling in presence of test compound, relative lux units relative to the SCH23390 control)” value stood at 84.

In the case of `CCC1(c2ccccc2)C(=O)NCNC1=O` [Compound 967, Primidone], the “Compound effect (percent receptor signaling in presence of test compound, relative lux units relative to the SCH23390 control)” value is recorded as 94.

Turning to `CN1CCN(CC(=O)N2c3ccccc3C(=O)Nc3cccnc32)CC1` [Compound 969, Pirenzepine dihydrochloride], the “Compound effect (percent receptor signaling in presence of test compound, relative lux units relative to the SCH23390 control)” value was 114.

`NCCCCN` [Compound 970, Putrescine dihydrochloride]: the “Compound effect (percent receptor signaling in presence of test compound, relative lux units relative to the SCH23390 control)” value came out at 88.

As to `Cc1ccc(N(CC2=NCCN2)c2cccc(O)c2)cc1` [Compound 971, Phentolamine mesylate], the “Compound effect (percent receptor signaling in presence of test compound, relative lux units relative to the SCH23390 control)” value is 42.

Turning to `CCC(=O)c1ccc2c(c1)N(CCCN(C)C)c1ccccc1S2` [Compound 972, Propionylpromazine hydrochloride], the “Compound effect (percent receptor signaling in presence of test compound, relative lux units relative to the SCH23390 control)” value stood at 15.

Consider `COc1cc2nc(N3CCN(C(=O)c4ccco4)CC3)nc(N)c2cc1OC` [Compound 973, Prazosin hydrochloride], for which the “Compound effect (percent receptor signaling in presence of test compound, relative lux units relative to the SCH23390 control)” value was found to be 81.

Take `O=C(CCc1ccc(O)cc1)c1c(O)cc(O)cc1O` [Compound 974, Phloretin]: the “Compound effect (percent receptor signaling in presence of test compound, relative lux units relative to the SCH23390 control)” value is on record as 99.

In the case of `C#CCN(C)Cc1ccccc1` [Compound 975, Pargyline hydrochloride], the “Compound effect (percent receptor signaling in presence of test compound, relative lux units relative to the SCH23390 control)” value is recorded as 95.

Consider `CCCCCCCCCCCCCC(=O)O[C@@H]1[C@@H](C)[C@@]2(O)[C@@H](C=C(CO)C[C@]3(O)C(=O)C(C)=C[C@@H]23)[C@@H]2C(C)(C)[C@]12OC(C)=O` [Compound 976, Phorbol 12-myristate 13-acetate], for which the “Compound effect (percent receptor signaling in presence of test compound, relative lux units relative to the SCH23390 control)” value is listed as 12.

With `C=CC1=C(C)c2cc3[nH]c(cc4nc(cc5[nH]c(cc1n2)c(C)c5CCC(=O)O)C(CCC(=O)O)=C4C)c(C)c3C=C` [Compound 978, Protoporphyrin IX disodium], the “Compound effect (percent receptor signaling in presence of test compound, relative lux units relative to the SCH23390 control)” value is 86.

`CCCCC1C(=O)N(c2ccccc2)N(c2ccccc2)C1=O` [Compound 980, Phenylbutazone]: the “Compound effect (percent receptor signaling in presence of test compound, relative lux units relative to the SCH23390 control)” value was determined as 96.

Consider `COc1ccc(C(=O)NCc2cccnc2)cc1C(=O)NCc1cccnc1` [Compound 981, Picotamide], for which the “Compound effect (percent receptor signaling in presence of test compound, relative lux units relative to the SCH23390 control)” value is reported as 84.

On to `N[C@@H]1C[C@H]1c1ccccc1` [Compound 982, Tranylcypromine hydrochloride], for which the “Compound effect (percent receptor signaling in presence of test compound, relative lux units relative to the SCH23390 control)” value worked out at 73.

In the case of `CC(C)NC[C@H](O)COc1cccc2ccccc12` [Compound 983, (S)-Propranolol hydrochloride], the “Compound effect (percent receptor signaling in presence of test compound, relative lux units relative to the SCH23390 control)” value is recorded as 90.

Regarding `CNCCCC1c2ccccc2C=Cc2ccccc21` [Compound 986, Protriptyline hydrochloride], the “Compound effect (percent receptor signaling in presence of test compound, relative lux units relative to the SCH23390 control)” value stood at 18.

As for `CCCN1C[C@H](CSC)C[C@@H]2c3cccc4[nH]cc(c34)C[C@H]21` [Compound 987, Pergolide methanesulfonate], the “Compound effect (percent receptor signaling in presence of test compound, relative lux units relative to the SCH23390 control)” value is on record as 53.

On to `O=c1[nH]c2ccccc2c2ccccc12` [Compound 988, 6(5H)-Phenanthridinone], for which the “Compound effect (percent receptor signaling in presence of test compound, relative lux units relative to the SCH23390 control)” value was found to be 90.

`CC(=O)[C@H]1CC[C@H]2[C@@H]3CC[C@H]4C[C@H](O)CC[C@]4(C)[C@H]3CC[C@]12C` [Compound 989, 5alpha-Pregnan-3alpha-ol-20-one]: the “Compound effect (percent receptor signaling in presence of test compound, relative lux units relative to the SCH23390 control)” value is reported as 73.

As for `CC(C)[N+](C)(CCOC(=O)C1c2ccccc2Oc2ccccc21)C(C)C` [Compound 990, Propantheline bromide], the “Compound effect (percent receptor signaling in presence of test compound, relative lux units relative to the SCH23390 control)” value worked out at 71.

On to `O=S(=O)(O)C1CCNCC1` [Compound 991, Piperidine-4-sulphonic acid], for which the “Compound effect (percent receptor signaling in presence of test compound, relative lux units relative to the SCH23390 control)” value is listed as 105.

Take `NC[C@@H]1O[C@H](O[C@H]2[C@@H](O)[C@H](O[C@@H]3[C@@H](O)[C@H](N)C[C@H](N)[C@H]3O[C@H]3O[C@H](CO)[C@@H](O)[C@H](O)[C@H]3N)O[C@@H]2CO)[C@H](N)[C@@H](O)[C@@H]1O` [Compound 994, Paromomycin sulfate]: the “Compound effect (percent receptor signaling in presence of test compound, relative lux units relative to the SCH23390 control)” value turned out to be 96.

Consider `O.c1cnc2c(c1)ccc1cccnc12` [Compound 995, 1,10-Phenanthroline monohydrate], for which the “Compound effect (percent receptor signaling in presence of test compound, relative lux units relative to the SCH23390 control)” value turned out to be 95.

As for `CCN(CC)CCNC(=O)c1ccc(N)cc1` [Compound 996, Procainamide hydrochloride], the “Compound effect (percent receptor signaling in presence of test compound, relative lux units relative to the SCH23390 control)” value is 100.

As to `CCCNC(C)C(=O)Nc1ccccc1C` (centres unmarked) [Compound 997, Prilocaine hydrochloride], the “Compound effect (percent receptor signaling in presence of test compound, relative lux units relative to the SCH23390 control)” value is 95.

As to `CCCn1cnc2c1c(=O)n(CCCCC(C)=O)c(=O)n2C` [Compound 998, Propentofylline], the “Compound effect (percent receptor signaling in presence of test compound, relative lux units relative to the SCH23390 control)” value was 87.

As for `CCCNC[C@H](O)COc1ccccc1C(=O)CCc1ccccc1.Cl` [Compound 999, (S)-(-)-propafenone hydrochloride], the “Compound effect (percent receptor signaling in presence of test compound, relative lux units relative to the SCH23390 control)” value worked out at 77.

Regarding `CN(C)C(=O)Oc1ccc[n+](C)c1` [Compound 1000, Pyridostigmine bromide], the “Compound effect (percent receptor signaling in presence of test compound, relative lux units relative to the SCH23390 control)” value was determined as 106.

With `CCN(CC)CCOC(=O)c1ccc(N)cc1` [Compound 1001, Procaine hydrochloride], the “Compound effect (percent receptor signaling in presence of test compound, relative lux units relative to the SCH23390 control)” value was 96.

Regarding `Nc1nc(Nc2ccccc2)nc2c1ncn2[C@@H]1O[C@H](CO)[C@@H](O)[C@H]1O` [Compound 1002, 2-Phenylaminoadenosine], the “Compound effect (percent receptor signaling in presence of test compound, relative lux units relative to the SCH23390 control)” value is on record as 106.

As for `OC[C@H]1O[C@@H](n2cnc3c(NCCc4ccccc4)ncnc32)[C@H](O)[C@@H]1O` [Compound 1007, N6-2-Phenylethyladenosine], the “Compound effect (percent receptor signaling in presence of test compound, relative lux units relative to the SCH23390 control)” value came out at 104.

With `OC[C@H]1O[C@@H](n2cnc3c(Nc4ccccc4)ncnc32)[C@H](O)[C@@H]1O` [Compound 1008, N6-Phenyladenosine], the “Compound effect (percent receptor signaling in presence of test compound, relative lux units relative to the SCH23390 control)” value is reported as 99.

Regarding `NCC(CP(=O)(O)O)c1ccc(Cl)cc1` (centres unmarked) [Compound 1009, Phaclofen], the “Compound effect (percent receptor signaling in presence of test compound, relative lux units relative to the SCH23390 control)” value is on record as 71.

Regarding `N=C(N)NC(=N)Nc1ccccc1` [Compound 1011, 1-Phenylbiguanide], the “Compound effect (percent receptor signaling in presence of test compound, relative lux units relative to the SCH23390 control)” value was determined as 81.

On to `CN/C(=N\c1ccc(C2=NNC(=O)CC2C)cc1)NC#N` (centres unmarked) [Compound 1012, SKF 94836], for which the “Compound effect (percent receptor signaling in presence of test compound, relative lux units relative to the SCH23390 control)” value amounted to 72.

`Cc1nc2ccccn2c(=O)c1CCN1CCC(C(=O)c2ccc(F)cc2)CC1` [Compound 1013, Pirenperone]: the “Compound effect (percent receptor signaling in presence of test compound, relative lux units relative to the SCH23390 control)” value is recorded as 10.

`COc1cc(OC)c(C=C2C(O)=Nc3ccccc32)c(OC)c1` [Compound 1014, IC 261]: the “Compound effect (percent receptor signaling in presence of test compound, relative lux units relative to the SCH23390 control)” value worked out at 78.

The experiment is the same for the next values; noted with them: 10 µM compound, 300 nM dopamine, 2 hr; hit = compound effect <20.
For the compound `Br.Br.N=C(N)SCCc1cccc(CCSC(=N)N)c1` [Compound 977, 1,3-PBIT dihydrobromide], the “Compound effect (percent receptor signaling in presence of test compound, relative lux units relative to the SCH23390 control)” value turned out to be 117%.

For the compound `Br.Br.N=C(N)SCCc1ccc(CCSC(=N)N)cc1` [Compound 979, 1,4-PBIT dihydrobromide], the “Compound effect (percent receptor signaling in presence of test compound, relative lux units relative to the SCH23390 control)” value came out at 120%.

`N.S=C(S)N1CCCC1` [Compound 984, Ammonium pyrrolidinedithiocarbamate]: the “Compound effect (percent receptor signaling in presence of test compound, relative lux units relative to the SCH23390 control)” value is listed as 85%.

For the compound `O=C(O)/C=C\C(=O)O.c1cnc(N2CCN(Cc3ccc4c(c3)OCO4)CC2)nc1` [Compound 993, Piribedil maleate], the “Compound effect (percent receptor signaling in presence of test compound, relative lux units relative to the SCH23390 control)” value came out at 120%.

Take `CCCN1CCC[C@H](c2cccc(O)c2)C1.Cl` [Compound 1003, R(+)-3PPP hydrochloride]: the “Compound effect (percent receptor signaling in presence of test compound, relative lux units relative to the SCH23390 control)” value came to 86%.

With `CCCN1CCC[C@@H](c2cccc(O)c2)C1.Cl` [Compound 1004, S(-)-3PPP hydrochloride], the “Compound effect (percent receptor signaling in presence of test compound, relative lux units relative to the SCH23390 control)” value is given as 89%.

For `Cl.NCC#Cc1ccccc1` [Compound 1006, 3-Phenylpropargylamine hydrochloride], the “Compound effect (percent receptor signaling in presence of test compound, relative lux units relative to the SCH23390 control)” value is reported as 91%.

The experiment is the same for the next values; noted with them: read-out: % of the SCH23390 effect (percent inhibition of receptor response relative to the SCH23390 control).
As for `CN(C)CCCN1c2ccccc2Sc2ccccc21` [Compound 961, Promazine hydrochloride], the inhibition at 10 µM stood at 88%.

As for `CCC(=O)c1ccc2c(c1)N(CCCN(C)C)c1ccccc1S2` [Compound 972, Propionylpromazine hydrochloride], the inhibition at 10 µM turned out to be 85%.

With `CCCCCCCCCCCCCC(=O)O[C@@H]1[C@@H](C)[C@@]2(O)[C@@H](C=C(CO)C[C@]3(O)C(=O)C(C)=C[C@@H]23)[C@@H]2C(C)(C)[C@]12OC(C)=O` [Compound 976, Phorbol 12-myristate 13-acetate], the inhibition at 10 µM was 88%.

Turning to `CNCCCC1c2ccccc2C=Cc2ccccc21` [Compound 986, Protriptyline hydrochloride], the inhibition at 10 µM turned out to be 82%.

Turning to `Cc1nc2ccccn2c(=O)c1CCN1CCC(C(=O)c2ccc(F)cc2)CC1` [Compound 1013, Pirenperone], the inhibition at 10 µM is 90%.
